# In PubChem BioAssay AID192 (DTP/NCI, 2004):
# “And” between values parts separate entries of the source, which are not always exact repeats. Equal entries are not always repeated. Inconclusive results and toxic doses are left out. Square brackets hold non-standard residues; d marks the D form. Peptide text beside a SMILES is read from it. * marks the point of attachment. ξ: configuration not given here. Boc = CC(C)(C)OC(=O)*; ξP = O=C(O)C1CCCN1
# Tested on: BDF1 mice, B16 melanoma ip, median survival T/C
# Test: NCI In Vivo Anticancer Drug Screen. Data for tumor model B16 Melanoma (intraperitoneal) in B6D2F1 (BDF1) mice
# Details: endpoint: median survival time, higher = longer survival
# Outline: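 Values are ratios of treated (T) to vehicle-control (C) measurements of survival or tumor size in tumor-bearing mice.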
# [1] = dose: 25.0 mg/kg/injection, schedule: Q01DX009 (ip), vehicle: saline
# [2] = dose: 50.0 mg/kg/injection, schedule: Q01DX009 (ip), vehicle: saline
# [3] = dose: 100.0 mg/kg/injection, schedule: Q01DX009 (ip), vehicle: saline
# [4] = dose: 200.0 mg/kg/injection, schedule: Q01DX009 (ip), vehicle: saline
# [5] = dose: 25.0 mg/kg/injection, schedule: Q01DX009 (ip), vehicle: Klucel (hydroxypropylcellulose) (HPC)
# [6] = dose: 50.0 mg/kg/injection, schedule: Q01DX009 (ip), vehicle: Klucel (hydroxypropylcellulose) (HPC)
# [7] = dose: 100.0 mg/kg/injection, schedule: Q01DX009 (ip), vehicle: Klucel (hydroxypropylcellulose) (HPC)
# [8] = dose: 200.0 mg/kg/injection, schedule: Q01DX009 (ip), vehicle: Klucel (hydroxypropylcellulose) (HPC)
# [9] = dose: 100.0 mg/kg/injection, schedule: Q01DX009 (ip), vehicle: saline with Tween-80
# [10] = dose: 200.0 mg/kg/injection, schedule: Q01DX009 (ip), vehicle: saline with Tween-80
# [11] = dose: 400.0 mg/kg/injection, schedule: Q01DX009 (ip), vehicle: saline with Tween-80
# [12] = dose: 6.25 mg/kg/injection, schedule: Q01DX009 (ip), vehicle: saline with Tween-80
# [13] = dose: 12.5 mg/kg/injection, schedule: Q01DX009 (ip), vehicle: saline
# [14] = dose: 50.0 mg/kg/injection, schedule: Q01DX009 (ip), vehicle: saline with Tween-80
# [15] = dose: 12.5 mg/kg/injection, schedule: Q01DX009 (ip), vehicle: saline with Tween-80
# [16] = dose: 25.0 mg/kg/injection, schedule: Q01DX009 (ip), vehicle: saline with Tween-80
compound,measurement,setting,value
NC(CSCCc1ccccn1)C(=O)O (stereo unspecified),T/C,[1],100 % of control
same,T/C,[2],100 % of control
same,T/C,[3],110 % of control
same,T/C,"dose: 100.0 mg/kg/injection, schedule: Q04DX003 (ip), vehicle: saline",104 % of control
same,T/C,"dose: 200.0 mg/kg/injection, schedule: Q04DX003 (ip), vehicle: saline",104 % of control
same,T/C,"dose: 400.0 mg/kg/injection, schedule: Q04DX003 (ip), vehicle: saline",104 % of control
CCN(CC)CCCC#CCN1CCOCC1,T/C,[2],115 % of control
same,T/C,[3],109 % of control
same,T/C,[4],100 % of control
CC(=O)C(=O)NC1/C=C(C)\C=C/C(O)C/C=C(C)\C=C/C(O)CC2OC(=O)C1(C)C(=O)C2C (stereo unspecified),T/C,[5],100 % of control
same,T/C,[6],118 % of control
same,T/C,[7],117 % of control
same,T/C,[8],112 % of control
CC1(C)SC2C(NC(=O)C(N)c3ccccc3)C(=O)N2C1C(=O)O (stereo unspecified),T/C,[9],100 % of control
same,T/C,[10],95 % of control
same,T/C,[11],90 % of control
CCCCCCC(O)CCCC (stereo unspecified),T/C,"dose: 100.0 mg/kg/injection, schedule: Q01DX009 (ip), vehicle: other",103 % of control
same,T/C,"dose: 200.0 mg/kg/injection, schedule: Q01DX009 (ip), vehicle: other",90 % of control
CCCCCCCCCCNCCC(=O)O,T/C,"dose: 0.58 mg/kg/injection, schedule: Q01DX009 (ip), vehicle: saline",98 % of control
same,T/C,"dose: 1.1 mg/kg/injection, schedule: Q01DX009 (ip), vehicle: saline",96 % of control
same,T/C,"dose: 2.3 mg/kg/injection, schedule: Q01DX009 (ip), vehicle: saline",95 % of control
same,T/C,"dose: 37.5 mg/kg/injection, schedule: Q01DX009 (ip), vehicle: saline",102 % of control
CS(=O)(=O)OCCN(CCOS(C)(=O)=O)c1ccc(C=O)cc1,T/C,[12],170 % of control
O=C(O)C1OC1C(=O)O (stereo unspecified),T/C,"dose: 75.0 mg/kg/injection, schedule: Q01DX009 (ip), vehicle: saline",120 % of control
same,T/C,"dose: 300.0 mg/kg/injection, schedule: Q01DX009 (ip), vehicle: saline",118 % of control
Nc1nc2[nH]c(=O)cnc2c(=O)[nH]1,T/C,[6],88 % of control
same,T/C,[7],86 % of control
same,T/C,[8],99 % of control
COC1CC(OC2CCC3(C)C(CCC45OC46CCC(C4=CC(=O)OC4)C6(C)CCC35)C2)OC(C)C1O (stereo unspecified),T/C,"dose: 1.2 mg/kg/injection, schedule: Q01DX009 (ip), vehicle: saline",98 % of control
same,T/C,"dose: 1.8 mg/kg/injection, schedule: Q01DX009 (ip), vehicle: saline",101 % of control
same,T/C,"dose: 2.75 mg/kg/injection, schedule: Q01DX009 (ip), vehicle: saline",87 % of control
same,T/C,[13],96 % of control
same,T/C,[1],89 % of control
CN1C2CCC1CC(OC(c1ccccc1)c1ccccc1)C2 (stereo unspecified),T/C,"dose: 1.56 mg/kg/injection, schedule: Q01DX009 (ip), vehicle: saline",102 % of control
same,T/C,"dose: 3.12 mg/kg/injection, schedule: Q01DX009 (ip), vehicle: saline",107 % of control
same,T/C,"dose: 6.25 mg/kg/injection, schedule: Q01DX009 (ip), vehicle: saline",107 % of control
same,T/C,[13],110 % of control
same,T/C,[1],107 % of control
Cc1cc2oc(C)[n+](Cc3ccccc3)c2cc1C,T/C,[14],111 % of control
same,T/C,[9],98 % of control
O/N=C\c1ccc(/C=N/O)cc1,T/C,"dose: 50.0 mg/kg/injection, schedule: Q04DX003 (ip), vehicle: saline with Tween-80",119 % of control
same,T/C,"dose: 100.0 mg/kg/injection, schedule: Q04DX003 (ip), vehicle: saline with Tween-80",119 % of control
same,T/C,"dose: 200.0 mg/kg/injection, schedule: Q04DX003 (ip), vehicle: saline with Tween-80",111 % of control
NC(=S)N/N=C/c1ccc(OC(=O)COc2ccccc2)cn1,T/C,[15],101 % of control and 110 % of control
same,T/C,[16],94 % of control and 104 % of control and 119 % of control
same,T/C,[14],103 % of control and 106 % of control and 117 % of control
same,T/C,[9],105 % of control
same,T/C,[10],105 % of control
same,T/C,[11],108 % of control
O=C(O)C(CSC(c1ccccc1)(c1ccccc1)c1ccccc1)N=Cc1cccs1 (stereo unspecified),T/C,[13],117 % of control
same,T/C,[1],122 % of control
Cc1cccc2nc(-c3ccccc3)ccc12,T/C,"dose: 12.5 mg/kg/injection, schedule: Q04DX003 (ip), vehicle: saline",107 % of control
same,T/C,"dose: 25.0 mg/kg/injection, schedule: Q04DX003 (ip), vehicle: saline",105 % of control
Cc1cc(Cl)ccc1NC(=O)c1ccccc1Cl,T/C,[7],114 % of control
same,T/C,[8],122 % of control
same,T/C,"dose: 400.0 mg/kg/injection, schedule: Q01DX009 (ip), vehicle: Klucel (hydroxypropylcellulose) (HPC)",110 % of control
COC(=O)C1CCCN1C(=O)CNC(=O)OC(C)(C)C (stereo not drawn) (Boc-Gly-[ξP]-OMe),T/C,[2],94 % of control
same,T/C,[3],103 % of control
same,T/C,[4],91 % of control
same,T/C,"dose: 400.0 mg/kg/injection, schedule: Q01DX009 (ip), vehicle: saline",88 % of control
CCCSc1ccccc1N1CCN(CC(COC)OC)CC1 (stereo unspecified),T/C,[13],101 % of control
same,T/C,[1],100 % of control
same,T/C,[2],96 % of control
CCCC(C(=O)O)c1ccccc1C (stereo unspecified),T/C,[9],102 % of control
same,T/C,[10],99 % of control
same,T/C,"dose: 300.0 mg/kg/injection, schedule: Q01DX009 (ip), vehicle: saline with Tween-80",106 % of control
C[C@]12C=CC(=O)C=C1CC[C@@H]1[C@@H]2C(=O)C[C@@]2(C)[C@H]1CC[C@]2(O)C(=O)CO,T/C,"dose: 12.5 mg/kg/injection, schedule: Q01DX009 (sc), vehicle: steriod suspending solution",102 % of control
same,T/C,"dose: 25.0 mg/kg/injection, schedule: Q01DX009 (sc), vehicle: steriod suspending solution",102 % of control
same,T/C,"dose: 50.0 mg/kg/injection, schedule: Q01DX009 (sc), vehicle: steriod suspending solution",89 % of control and 102 % of control and 110 % of control
same,T/C,"dose: 50.0 mg/kg/injection, schedule: Q01DX017 (sc), vehicle: steriod suspending solution",104 % of control
same,T/C,"dose: 50.0 mg/kg/injection, schedule: Q## X009 (sc), vehicle: steriod suspending solution",102 % of control
same,T/C,"dose: 100.0 mg/kg/injection, schedule: Q01DX001 (sc), vehicle: steriod suspending solution",100 % of control
same,T/C,"dose: 100.0 mg/kg/injection, schedule: Q01DX009 (sc), vehicle: steriod suspending solution",109 % of control
same,T/C,"dose: 100.0 mg/kg/injection, schedule: Q01DX017 (sc), vehicle: steriod suspending solution",97 % of control
same,T/C,"dose: 100.0 mg/kg/injection, schedule: Q04DX003 (sc), vehicle: steriod suspending solution",109 % of control
same,T/C,"dose: 100.0 mg/kg/injection, schedule: Q04DX005 (sc), vehicle: steriod suspending solution",97 % of control
same,T/C,"dose: 100.0 mg/kg/injection, schedule: Q## X009 (sc), vehicle: steriod suspending solution",118 % of control
same,T/C,"dose: 200.0 mg/kg/injection, schedule: Q01DX001 (sc), vehicle: steriod suspending solution",95 % of control
same,T/C,"dose: 200.0 mg/kg/injection, schedule: Q01DX009 (sc), vehicle: steriod suspending solution",123 % of control
same,T/C,"dose: 200.0 mg/kg/injection, schedule: Q04DX003 (sc), vehicle: steriod suspending solution",104 % of control
same,T/C,"dose: 200.0 mg/kg/injection, schedule: Q04DX005 (sc), vehicle: steriod suspending solution",106 % of control
same,T/C,"dose: 200.0 mg/kg/injection, schedule: Q## X009 (sc), vehicle: steriod suspending solution",106 % of control
same,T/C,"dose: 400.0 mg/kg/injection, schedule: Q01DX001 (sc), vehicle: steriod suspending solution",95 % of control
same,T/C,"dose: 400.0 mg/kg/injection, schedule: Q04DX003 (sc), vehicle: steriod suspending solution",106 % of control
same,T/C,"dose: 400.0 mg/kg/injection, schedule: Q04DX005 (sc), vehicle: steriod suspending solution",109 % of control
same,T/C,"dose: 400.0 mg/kg/injection, schedule: Q## X009 (sc), vehicle: steriod suspending solution",106 % of control
same,T/C,"dose: 800.0 mg/kg/injection, schedule: Q01DX001 (sc), vehicle: steriod suspending solution",93 % of control
O=CC=O,T/C,[15],104 % of control
same,T/C,[16],106 % of control
same,T/C,[14],108 % of control
same,T/C,[9],123 % of control
BrCC[Se]c1ccccc1,T/C,[12],103 % of control
same,T/C,[15],95 % of control
same,T/C,[16],96 % of control
same,T/C,[14],104 % of control
same,T/C,[9],89 % of control
[Cl][Pt+2][Cl].[NH-]C1CCCCC1.[NH-]C1CCCCC1,T/C,"dose: 6.25 mg/kg/injection, schedule: Q01DX009 (ip), vehicle: Klucel (hydroxypropylcellulose) (HPC)",105 % of control
same,T/C,"dose: 12.5 mg/kg/injection, schedule: Q01DX009 (ip), vehicle: Klucel (hydroxypropylcellulose) (HPC)",110 % of control
same,T/C,[5],92 % of control and 117 % of control
same,T/C,[6],97 % of control
O=C(Oc1ccc(-c2ccc(Br)cc2)cc1)c1ccco1,T/C,[14],88 % of control
